The values below come from patent publication US20030148264A1, “Phage displayed PDZ domain ligands” (GENENTECH, INC., priority 2001, published 2003).

Read-outs that look alike come from different tables or passages of the source. Where a SMILES comes first, the peptide text is derived from it. Where no end group is shown, it is not given here. [ ]: non-standard residue; d: D form. 2Nal = N[C@@H](Cc1ccc2ccccc2c1)C(=O)O

The target of the assay is ERBIN PDZ domain (Homo sapiens, UniProt Q96RT1). Briefly: Competition ELISA, ERBIN PDZ-GST binding to immobilized biotinylated peptide. Also on record: made in house; host or cells: E. coli. The conditions noted are these: for fold less potent than Ac-WETWV (SEQ ID NO:225): Alanine scanning of WETWV peptide. The protocol: Binding affinities of the peptides for the ERBIN PDZ domain were determined as IC50 values using competition ELISAs. […] Assay plates were prepared by coating Maxisorp plates overnight at 4° C. with 65 μl of a 2 μg/ml solution of neutravidin in PBS. The plates were then blocked through addition of 65 μl of a 1% solution of bovine serum albumin (BSA) in PBS for 1 hour at room temperature, then washed 10 times with PBS containing 0.05% Tween-20. 65 μl of the amino-terminally biotinylated peptide PDZ 501 (TGWETWV; SEQ ID NO:222) was then added at a concentration of 100 nM in PBS with 0.5% BSA and 0.05% Tween-20 and incubated for 1 hour at room temperature. Simultaneously, binding reactions consisting of serial dilutions of the test compounds in PBS with 0.5% BSA and 0.05% Tween-20 containing 2 μg/ml ERBIN PDZ-GST fusion protein were incubated for 1 hour at room temperature. The plate coated with the immobilized peptide was again washed 10 times before 65 μl of each binding reaction was added to a well and incubated for 15 minutes at room temperature. The plates were again washed 10 times before being developed by incubating for 30 minutes with a 1:1000 dilution of anti-mouse HRP conjugated antibody and a 1:2000 dilution of a mouse anti-GST antibody in PBS with 0.5% BSA and 0.05% Tween-20. The plates were washed 10 times, then incubated with 100 μl HRP substrate for 5 minutes and the color developed through addition of 100 μl of 1 M H3PO4. The plates were read at 450 nm and the absorption fit to a binding curve using a least squares fit.
Binding affinities of the peptides for the ERBIN PDZ domain were determined as IC50 values using competition ELISAs. […] Assay plates were prepared by coating microwell plates overnight with neutravidin. The plates were then blocked through addition of BSA, and then amino-terminally biotinylated WETWV (SEQ ID NO:225) was then bound to the plates. Simultaneously, binding reactions consisting of serial dilutions of the test peptides with ERBIN PDZ-GST fusion proteins were performed. The plate coated with the immobilized WETWV (SEQ ID NO:225) was extensively washed before adding each binding reaction to the wells and briefly incubated. After further washing, anti-mouse HRP conjugated antibody and a mouse anti-GST antibody were added. The plates were then developed with HRP substrate and H3PO4, and then read at 450 nm. The absorption fit to a binding curve using a least squares fit. Thus the ability of the various peptides to inhibit ERBIN PDZ domain from binding its cognate was measured. […]
In general terms: ELISA stands for enzyme-linked immunosorbent assay.

[1] abbreviates: ERBIN peptide truncations with N-terminal acylation.
[2] abbreviates: ERBIN peptide truncations with N-terminal acylation, read-out: IC50.
Setting [3] is: Substitutions for tryptophan at the −1 position.
Where [4] appears, read: ERBIN peptide truncations without N-terminal acylation.
[5] abbreviates: ERBIN peptide truncations without N-terminal acylation, read-out: IC50.
The mark [6] stands for this setting: Small molecules that inhibit ERBIN PDZ domain from binding immobilized WETWV, read-out: IC50.
The mark [7] stands for this setting: Substitutions for threonine at the −2 position and glutamate at the −3 position.

Chain of ERBIN PDZ domain (Q96RT1 1258-1412): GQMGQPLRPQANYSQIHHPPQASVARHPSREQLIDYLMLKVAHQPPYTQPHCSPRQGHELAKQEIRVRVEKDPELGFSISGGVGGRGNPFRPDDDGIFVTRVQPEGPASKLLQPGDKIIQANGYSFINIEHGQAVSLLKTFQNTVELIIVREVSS

Turning to `CC(=O)N[C@@H](CCC(=O)O)C(=O)N[C@H](C(=O)N[C@@H](Cc1c[nH]c2ccccc12)C(=O)N[C@H](C(=O)O)C(C)C)[C@@H](C)O` [Ac-ETWV] (Ac-ETWV-OH; C-terminus assumed), under setting [1], the “fold less potent than Ac-GWETWV” value stood at 5.1 fold. Also, the IC50 under setting [2] came to 4.9 µM.
As to `CC(=O)N[C@@H](Cc1c[nH]c2ccccc12)C(=O)N[C@@H](CCC(=O)O)C(=O)N[C@H](C(=O)N[C@@H](Cc1ccc2ccccc2c1)C(=O)N[C@H](C(=O)O)C(C)C)[C@@H](C)O` [Ac-WETNapV] (Ac-WET[2Nal]V-OH; C-terminus assumed), the IC50 turned out to be 0.6 µM. For the same molecule, the “fold less potent than Ac-WETWV” value under setting [3] was 1.1 fold.
Take `CC(=O)N[C@@H](Cc1c[nH]c2ccccc12)C(=O)N[C@H](C(=O)O)C(C)C` [Ac-WV] (Ac-Trp-Val-OH; C-terminus assumed): the “fold less potent than Ac-GWETWV” value under setting [1] stood at 78.7 fold. The IC50 under setting [2] stood at 77.8 µM.
For the molecule `CC(C)[C@H](NC(=O)[C@H](Cc1c[nH]c2ccccc12)NC(=O)[C@@H](NC(=O)[C@@H](N)CCC(=O)O)[C@@H](C)O)C(=O)O` [H1N -ETWV] (H-ETWV-OH; C-terminus assumed), under setting [4], the “fold less potent than H1N -GWETWV” value is reported as 11.5 fold. Also, the IC50 under setting [5] amounted to 16.5 µM.
On to `CC(C)[C@H](NC(=O)[C@H](Cc1c[nH]c2ccccc12)NC(=O)[C@@H](N)[C@@H](C)O)C(=O)O` [H1N -TWV] (H-Thr-Trp-Val-OH; C-terminus assumed), for which the “fold less potent than H1N -GWETWV” value under setting [4] turned out to be 73.6 fold. For the same molecule, the IC50 under setting [5] was determined as 105 µM.
On to `CC(C)C(NC(=O)C(Cc1cc2ccccc2[nH]1)NC(=O)C1CCc2ccccc2C1)C(=O)O` (centres unmarked) [WV 38], for which the IC50 under setting [6] came out at 304 µM.
On the same count and under the same terms, then `CC(C)C(NC(=O)C(Cc1cc2ccccc2[nH]1)NC(=O)c1cnc2ccccc2n1)C(=O)O` (centres unmarked) [WV 46], with 334 µM.
Take `CC(C)C(NC(=O)C(Cc1cc2ccccc2[nH]1)NC(=O)c1ccc(-c2ccc([N+](=O)[O-])cc2)o1)C(=O)O` (centres unmarked) [WV 58]: the IC50 under setting [6] stood at 697 µM.
As for `CC(C)C(NC(=O)C(Cc1cc2ccccc2[nH]1)NC(=O)c1cc2ccccc2[nH]1)C(=O)O` (centres unmarked) [WV 66], under setting [6], the IC50 turned out to be 549 µM.
For the molecule Ac-AETWV [Ac-AETWV], the IC50 turned out to be 4 µM and the “fold less potent than Ac-WETWV (SEQ ID NO:225)” value came to 8.2 fold.
Regarding Ac-GWETWV [Ac-GWETWV], the IC50 is 0.9 µM. Further, the “fold less potent than Ac-GWETWV” value under setting [1] is 1.0 fold.
On to Ac-WATWV [Ac-WATWV], for which the IC50 came out at 14.8 µM and the “fold less potent than Ac-WETWV (SEQ ID NO:225)” value is recorded as 30.3 fold.
In turn, Ac-WDTWV [Ac-WDTWV] came in with an IC50 of 1.7 µM. For the same molecule, under setting [7], the “fold less potent than Ac-WETWV” value was determined as 3.4 fold.
Ac-WEAWV [Ac-WEAWV]: the IC50 stood at 12.4 µM and the “fold less potent than Ac-WETWV (SEQ ID NO:225)” value is reported as 25.3 fold.
As for Ac-WESWV [Ac-WESWV], the IC50 came to 2.5 µM. The “fold less potent than Ac-WETWV” value under setting [7] is recorded as 5.2 fold.
Regarding Ac-WETAV [Ac-WETAV], the IC50 was determined as 34 µM and the “fold less potent than Ac-WETWV (SEQ ID NO:225)” value turned out to be 69.3 fold. Further, the “fold less potent than Ac-WETWV” value under setting [3] is listed as 69.3 fold.
The molecule Ac-WETFV [Ac-WETFV] showed an IC50 of 14.5 µM. The “fold less potent than Ac-WETWV” value under setting [3] was determined as 295 fold.
As for Ac-WETWV [Ac-WETWV], the IC50 turned out to be 0.5 µM and the “fold less potent than Ac-WETWV (SEQ ID NO:225)” value is 1 fold. Also, under setting [1], the “fold less potent than Ac-GWETWV” value was 0.5 fold. In addition, the “fold less potent than Ac-WETWV” value under setting [7] was determined as 1 fold. Moreover, the “fold less potent than Ac-WETWV” value under setting [3] is listed as 1 fold.
For Ac-WETYV [Ac-WETYV], the IC50 stood at 42.5 µM. Further, the “fold less potent than Ac-WETWV” value under setting [3] came out at 86.7 fold.
The molecule Ac-WEVWV [Ac-WEVWV] came in with an IC50 of 4.8 µM. Also, under setting [7], the “fold less potent than Ac-WETWV” value was found to be 9.8 fold.
H-GWETWV [H1N-GWETWV] yielded an IC50 of 1.4 µM. In addition, the “fold less potent than H1N -GWETWV” value under setting [4] stood at 1.0 fold.
As to H-WETWV [H1N -WETWV], the IC50 was determined as 0.2 µM. Also, the “fold less potent than H1N -GWETWV” value under setting [4] was found to be 0.2 fold.

The term IC50 denotes the point on the concentration scale where inhibition reaches its midpoint.
